Entries after “also recorded” stand apart in the source; their conditions may differ.

Experiment [1] has as its system S. mutans. It is filed as cell-based, Streptococcus mutans. The settings on record: S. mutans. How it is done: Typically, the in vitro antimicrobial activity of antimicrobial agents is tested using standard NCCLS bacterial inhibition assays, or MIC tests (see, National Committee on Clinical Laboratory Standards “Performance Standards for Antimicrobial Susceptibility Testing,” NCCLS Document M100-S5 Vol. 14, No. 16, December 1994; “Methods for dilution antimicrobial susceptibility test for bacteria that grow aerobically-Third Edition,” Approved Standard M7-A3, National Committee for Clinical Standards, Villanova, Pa.).
Briefly, ˜1×10^5 cfu/mL bacteria were diluted in TH (S. mutans), or Mueller-Hinton (MH) broth (all other organisms) and distributed to 96-well plates. Serially-diluted (2-fold) peptides were then added and the plates incubated at 37° C. for 18-24 h. […] All experiments were conducted 10 times.

The subject of experiment [2] is M. luteus. Description: Kill or inhibit growth/proliferation; morphology, biofilm and growth disruption (Tables 5, 6). Further: test concentration or dose not given here. It is filed as cell-based, Micrococcus luteus. Details: key: A: Peptide aggregates; B: Less hyphal formation; Clumps; Diffuse clumps and small polyps; F: Diffuse growth; H: Thin; I: Growth inhibition; Microcolony formation; Rippled; Small polyps; Thick; W: Halo formation on top, microlonies on bottom.

Experiment [3] concerns MRSA. Described as above. Details: key: A: Peptide aggregates; B: Less hyphal formation; Clumps; Diffuse clumps and small polyps; F: Diffuse growth; H: Thin; I: Growth inhibition; Microcolony formation; Rippled; Small polyps; Thick; W: Halo formation on top, microlonies on bottom. It is filed as cell-based, Methicillin-resistant Staphylococcus aureus. Further: test concentration or dose not given here.
The test system of experiment [4] is S. epidermidis. The experiment is described as above. It is filed as cell-based, Staphylococcus epidermidis. More on the design: key: A: Peptide aggregates; B: Less hyphal formation; Clumps; Diffuse clumps and small polyps; F: Diffuse growth; H: Thin; I: Growth inhibition; Microcolony formation; Rippled; Small polyps; Thick; W: Halo formation on top, microlonies on bottom.

In experiment [5] the test system is S. mutans. The description is as above. It is filed as cell-based, Streptococcus mutans. More on the design: key: A: Peptide aggregates; B: Less hyphal formation; Clumps; Diffuse clumps and small polyps; F: Diffuse growth; H: Thin; I: Growth inhibition; Microcolony formation; Rippled; Small polyps; Thick; W: Halo formation on top, microlonies on bottom.
The subject of experiment [6] is S. pneumoniae. The experiment is described as above. Details: key: A: Peptide aggregates; B: Less hyphal formation; Clumps; Diffuse clumps and small polyps; F: Diffuse growth; H: Thin; I: Growth inhibition; Microcolony formation; Rippled; Small polyps; Thick; W: Halo formation on top, microlonies on bottom. The class given is cell-based, Streptococcus pneumoniae.
The subject of experiment [7] is E. coli. Described as above. More on the design: key: A: Peptide aggregates; B: Less hyphal formation; Clumps; Diffuse clumps and small polyps; F: Diffuse growth; H: Thin; I: Growth inhibition; Microcolony formation; Rippled; Small polyps; Thick; W: Halo formation on top, microlonies on bottom. It is filed as cell-based, Escherichia coli.
In experiment [8] the test system is P. aeruginosa. The description is as above. It is filed as cell-based, Pseudomonas aeruginosa. Details: key: A: Peptide aggregates; B: Less hyphal formation; Clumps; Diffuse clumps and small polyps; F: Diffuse growth; H: Thin; I: Growth inhibition; Microcolony formation; Rippled; Small polyps; Thick; W: Halo formation on top, microlonies on bottom. Further: test concentration or dose not given here.
For experiment [9], the system named is microorganisms (e.g., bacteria, yeasts, fungi). The experiment is described as follows: Targeting peptide binding to target microorganisms (Table 3). Conditions: peptide binding in aqueous buffers varied by peptide solubility; preferably 1x PBS.
For experiment [10], the system named is microorganisms. The experiment is described as follows: Peptides having multiple activities (targeting/binding, antimicrobial, growth or phenotype altering). From the text: In certain embodiments, peptides described herein can have multiple activities. Thus for example, a peptide can have both binding/targeting activity and antimicrobial activity. Such peptides can be used, e.g., in a chimeric construct, for any or all of these properties. Thus, for example, a peptide designated “B” in Table 8 can be used as a targeting peptide. If it is also designated G or M it can also be used for antimicrobial activity.

Experiment [11] deals with F. nucleatum. Description: Kill or inhibit growth/proliferation; morphology, biofilm and growth disruption (Tables 5, 6). Further: test concentration or dose not given here. Details: key: A: Peptide aggregates; B: Less hyphal formation; Clumps; Diffuse clumps and small polyps; F: Diffuse growth; H: Thin; I: Growth inhibition; Microcolony formation; Rippled; Small polyps; Thick; W: Halo formation on top, microlonies on bottom. The class given is cell-based, Fusobacterium nucleatum.

The test system of experiment [12] is B. subtilis. The experiment is described as above. More on the design: key: A: Peptide aggregates; B: Less hyphal formation; Clumps; Diffuse clumps and small polyps; F: Diffuse growth; H: Thin; I: Growth inhibition; Microcolony formation; Rippled; Small polyps; Thick; W: Halo formation on top, microlonies on bottom. It is filed as cell-based, Bacillus subtilis. Further: test concentration or dose not given here.

The test system of experiment [13] is C. jeikeium. Described as above. The class given is cell-based, Corynebacterium jeikeium. Details: key: A: Peptide aggregates; B: Less hyphal formation; Clumps; Diffuse clumps and small polyps; F: Diffuse growth; H: Thin; I: Growth inhibition; Microcolony formation; Rippled; Small polyps; Thick; W: Halo formation on top, microlonies on bottom. Further: test concentration or dose not given here.
Experiment [14] has as its system C. jejuni. Described as above. The class given is cell-based, Campylobacter jejuni. More on the design: key: A: Peptide aggregates; B: Less hyphal formation; Clumps; Diffuse clumps and small polyps; F: Diffuse growth; H: Thin; I: Growth inhibition; Microcolony formation; Rippled; Small polyps; Thick; W: Halo formation on top, microlonies on bottom. Further: test concentration or dose not given here.
Experiment [15] concerns C. albicans. The experiment is described as above. It is filed as cell-based, Candida albicans. Details: key: A: Peptide aggregates; B: Less hyphal formation; Clumps; Diffuse clumps and small polyps; F: Diffuse growth; H: Thin; I: Growth inhibition; Microcolony formation; Rippled; Small polyps; Thick; W: Halo formation on top, microlonies on bottom. Further: test concentration or dose not given here.
Wherever Organism, effect (morphology, biofilm and growth disruption) is given: test concentration or dose not given here.

As for FIRKFLKKWLL [Peptide K-9], in [1], the MIC entry is recorded as “S. mutans, 4 μM”.
In the case of FLKFLKKFFKKLKY [Peptide K-20], the MIC entry in experiment [1] is recorded as “S. mutans, 8 μM”.
Still for that read-out and setting: to FTRKFLKFLHL [Peptide K-17] belongs “S. mutans, 8 μM”.
Same read-out and setting: to GIFKKFVKILYKVQKL [Peptide K-22] belongs “S. mutans, 8 μM”; to GILKKLFTKVF [Peptide K-13], “S. mutans, 16 μM”.
Same read-out and setting: the entry for GLGRVIGRLIKQIIWRR [Peptide K-1] is “S. mutans, 25 μM”.
Consider GWLKMFKKIIGKFGKF [Peptide K-21], for which, in experiment [1], the MIC result is “S. mutans, 8 μM”.
In the case of KILKFLFKKVF [Peptide K-8], in [1], the MIC entry was “S. mutans, 4 μM”.
As to KILKFLFKQVF [Peptide K-11], in [1], the MIC result was “S. mutans, 4 μM”.
Same read-out and setting: the entry for KILKKLFKFVF [Peptide K-12] is “S. mutans, 8 μM”; for KKFKKFKVLKIL [Peptide K-18] it is “S. mutans, 16 μM”.
On the same count and under the same terms, to KLFKFLRKHLL [Peptide K-10] belongs “S. mutans, 4 μM”; to LLKLLKLKKLKF [Peptide K-19], “S. mutans, 16 μM”.
For the substance LRKFLHKLF [Peptide K-14], in experiment [1], the MIC entry is on record as “S. mutans, 8 μM”.
With LRKNLRWLF [Peptide K-15], in experiment [1], the MIC entry was “S. mutans, 4 μM”.
Take NYRLVNAIFSKIFKKKFIKF [Peptide K-7]: the MIC entry in experiment [1] is “S. mutans, 12.5 μM”.
“PF-746: peptide having multiple activities (FLGNSQYFTRK; Peptide with targeting and/or antimicrobial activity)”: the “Organism, effect (morphology, biofilm and growth disruption)” value in experiment [2] is on record as “M. luteus (C)”; in experiment [3], “MRSA (C)”; in experiment [4] it was “S. epidermidis (C)”; in experiment [5], “S. mutans (D)”; in experiment [6], “S. pneumoniae (C)”; in experiment [7], “E. coli (C)”. Also, the “Organism, effect (morphology, biofilm and growth disruption)” value in experiment [8] is listed as “P. aeruginosa (A)”. Also, the “Target(s) (microorganisms bound by the targeting peptide)” value in [9] is on record as “S. epidermidis; also recorded: M. luteus; also recorded: E. coli; also recorded: C. albicans; also recorded: S. pneumoniae; also recorded: E. faecalis; also recorded: C. jeikeium”. Also, the Activities entry in experiment [10] is listed as “G B”.
Turning to “PF-761: peptide having multiple activities (SKFELVNYASGCSCGADCKCASETECKCASKK; Peptide with targeting and/or antimicrobial activity)”, the “Organism, effect (morphology, biofilm and growth disruption)” value was “M. luteus (C)” in experiment [2]; “MRSA (D)” in experiment [3]; “S. epidermidis (C)” in experiment [4]; “S. mutans (D)” in experiment [5]; “S. pneumoniae (C)” in [6]; “E. coli (C)” in experiment [7]. Further, the “Organism, effect (morphology, biofilm and growth disruption)” value in [8] is listed as “P. aeruginosa (C)”. For the same substance, in [9], the “Target(s) (microorganisms bound by the targeting peptide)” value is “S. epidermidis and M. luteus and P. mirabilis and P. aeruginosa and C. albicans and MRSA and S. pneumoniae and E. faecalis”. In addition, the Activities result in [10] is listed as “G B”.
Turning to “PF-C064: peptide having multiple activities (DEEALEMGANLYAQFAIDFLNSKK; Peptide with targeting and/or antimicrobial activity)”, the “Organism, effect (morphology, biofilm and growth disruption)” value in [11] is recorded as “F. nucleatum (T)”. For the same substance, in experiment [9], the “Target(s) (microorganisms bound by the targeting peptide)” value is recorded as “A. naeslundii; also recorded: F. nucleatum; also recorded: P. gingivalis; also recorded: S. mutans; also recorded: T. denticola”. The Activities result in experiment [10] is listed as “G B”.
Regarding “PF-C069: peptide having multiple activities (NALMLREMQLAKNIKVEVTDVLSNKKYC; Peptide with targeting and/or antimicrobial activity)”, the “Organism, effect (morphology, biofilm and growth disruption)” value in [11] is “F. nucleatum (T)”. The “Target(s) (microorganisms bound by the targeting peptide)” value in [9] is recorded as “A. naeslundii; also recorded: F. nucleatum; also recorded: P. gingivalis; also recorded: S. mutans; also recorded: T. denticola”. Moreover, in [10], the Activities result is given as “G B”.
Taken in the same sequence, the figures for “PF-C071: peptide having multiple activities (QVIVKIL; Peptide with targeting and/or antimicrobial activity)” were “F. nucleatum (T)”, “A. naeslundii; also recorded: F. nucleatum; also recorded: S. mutans” and “G B”.
Turning to “PF-C091: peptide having multiple activities (ASNTPRFVRLTLFNFYSKIWNVTHLFLFNNL; Peptide with targeting and/or antimicrobial activity)”, the “Organism, effect (morphology, biofilm and growth disruption)” value in [11] is “F. nucleatum (T)”. Also, the “Target(s) (microorganisms bound by the targeting peptide)” value in [9] is recorded as “A. naeslundii; also recorded: F. nucleatum; also recorded: P. gingivalis; also recorded: S. mutans; also recorded: T. denticola”. Also, the Activities result in experiment [10] was “G B”.
As to “PF-C214 (GGHKQLVIEPLVSQ; Peptide with targeting and/or antimicrobial activity)”, the “Organism, effect (morphology, biofilm and growth disruption)” value in experiment [11] is reported as “F. nucleatum (T)”.
As to “PF-S003: peptide having multiple activities (ALALLKQDLLNFEGRGRIITSTYLQFNEGCVP; Peptide with targeting and/or antimicrobial activity)”, the “Organism, effect (morphology, biofilm and growth disruption)” value was “B. subtilis (A)” in [12]; “C. jeikeium (D)” in [13]; “M. luteus (R)” in experiment [2]; “MRSA (M)” in experiment [3]; “S. epidermidis (R)” in experiment [4]; “S. pneumoniae (D)” in experiment [6]. In addition, the “Organism, effect (morphology, biofilm and growth disruption)” value in experiment [14] is “C. jejuni (D)”; in experiment [8], “P. aeruginosa (A)”; in experiment [15], “C. albicans (A)”. Further, in experiment [10], the Activities result is recorded as “G B”.
Regarding VYRKRKSILKIYAKLKGWH [Peptide K-2], in experiment [1], the MIC result was “S. mutans, 12.5 μM”.
